Measured values taken from patent US20210403975A1, “PHENOTYPIC ANTIMICROBIAL SUSCEPTIBILITY PROFILING OF UNIDENTIFIED PATHOGENS DIRECTLY FROM PATIENT SAMPLES” (GeneFluidics, Inc., priority 2020, published 2021).
Where two headings read alike, the source gives them in different places.

Assays:
[1] = tested on: P. aeruginosa ATCC 27853; test: MIC of the strain used in the gentamicin/meropenem checkerboard; format: cell-based; settings: P. aeruginosa ATCC 27853, FIG. 6A legend
Experimental: FIG. 6A-C presents a (A) P. aeruginosa ATCC 27853 5×5 checkerboard with gentamicin (MIC: 1 μg/mL) and meropenem (MIC: 0.5 μg/mL). Assay results after 3.5 hours of incubation at 37° C. (B) A 3×3 checkerboard of gentamicin and meropenem on the same P. aeruginosa strain. (C) An exemplary embodiment of a 96-well checkerboard plate for 66 combinations. ABX are gray-scaled with different intensities to represent different concentrations.
The disclosure provides for the establishment and validation of an automated protocol to assess combinations of two or more antimicrobials to assess antimicrobial susceptibility directly from pediatric patients' specimens during an emergency or unprecedented pandemic. The direct-from-specimen AST protocols discussed above are expanded into a 96-well plate-based checkerboard test to assess 66 preselected combinations of 25 antibiotics as illustrated in FIG. 6C.

[2] = tested on: CDC69 (resistant strain); test: Direct-from-specimen AST, GC ratio trend over increasing meropenem concentrations; format: cell-based; settings: CDC 69; 4-hour antibiotic exposure; meropenem 1 to 64 μg/mL; agrees with CDC AR Bank MIC
Excerpt: (§1) The direct-from-specimen AST disclosed herein will start with various types of specimens with an unknown concentration of pathogens, from 0 to >10^8 CFU/mL. In order to determine the minimum assay time needed for quantification of RNA transcription at different levels of pathogen concentration, a correlation between the limit of detection (LOD) of the current molecular analysis platform (see FIG. 3 steps 1-17) with the assay turnaround time (TAT) was established (see FIG. 4). […] Target pathogen enrichment and matrix component removal can be carried out by the built-in centrifugal module to achieve lower target LODs with TAT of 42 minutes to 110 minutes. For low-abundance pathogens and early infection diagnostics, additional viability culture steps with TAT of 240 minutes to 330 minutes can be included to achieve an LOD of <10 CFU/mL. The direct-from-specimen AST method disclosed herein will encompass these assay parameters. […] Semi-automatic AST tests directly from whole blood and urine contrived samples were evaluated in FIG. 5 A-C. […]
(§2) Direct-from-specimen AST Analytical Validation Protocol: (1) The user loads the specimen collection tube into the system, which then (2) scans the bar code to determine specimen type. […] The system incubates enzyme, then performs electrochemical reading and (10) AST reporting.

[3] = tested on: CDC77 (susceptible strain); test: as above; format: cell-based; settings: 4-hour antibiotic exposure, meropenem 1 to 64 μg/mL, agrees with CDC AR Bank MIC
Excerpt: as §1, §2

[4] = tested on: CDC 349 E. coli; settings: cited from earlier work
[5] = tested on: CDC Proteus mirabilis (PM) 29; settings: CDC PM 29; cited from earlier work
[6] = tested on: CDC KP 522; settings: cited from earlier work
[7] = tested on: KP 525; settings: cited from earlier work
[8] = tested on: CDC KP 522; test: Preliminary accelerated colistin AST, 2 hours drug-bug exposure; format: cell-based, Klebsiella pneumoniae; settings: colistin 0.25-8 μg/mL, 2 hours exposure
Excerpt: (§3) Direct-from-specimen of HR approach. HR is a poorly characterized phenomenon and the lack of consensus-based standards further complicates the study of antibiotic resistance. In addition, its clinical relevance is uncertain due to a lack of a standardized procedure to be implemented into the current workflow in clinical microbiology laboratories. […] FIG. 8C is the HR testing on the system.

[9] = tested on: KP 525; test: as above; format: cell-based, Klebsiella pneumoniae; settings: colistin 0.25-8 μg/mL, 2 hours exposure
Excerpt: as §3

[10] = tested on: CDC Proteus mirabilis (PM) 29; test: as above; format: cell-based; settings: CDC PM 29; 2 hours exposure
Excerpt: as §3

[11] = tested on: CDC Enterobacter cloacae (EbC) 545; test: as above; format: cell-based; settings: 2 hours CST exposure in stripwell, FIG. 8A
Excerpt: as §3

[12] = tested on: Klebsiella pneumoniae (KP) 138; test: as above; format: cell-based; settings: 2 hours CST exposure in stripwell, FIG. 8A
Excerpt: as §3

[13] = tested on: CDC Enterobacter cloacae (EbC) 545; settings: CDC EbC 545; cited from earlier work
[14] = tested on: Klebsiella pneumoniae (KP) 138; settings: cited from earlier work

In the case of gentamicin, the MIC [1] was 1 µg/mL.

For C[C@@H](O)[C@H]1C(=O)N2C(C(=O)O)=C(S[C@@H]3CN[C@H](C(=O)N(C)C)C3)[C@H](C)[C@H]12 [meropenem], the MIC ([1]; Pseudomonas aeruginosa, ATCC27853, read-out: MIC) was 0.5 µg/mL, the “MIC reported from trend of GC ratio” value [2] was 8 µg/mL and the “MIC reported from trend of GC ratio” value [3] was < 1 µg/mL.

In the case of colistin, the MIC [4] is given as 2 to 4 µg/mL, the “MIC (listed)” value [5] is given as > 4 µg/mL and the MIC [6] is given as > 8 µg/mL. For the same compound, the MIC [7] was > 8 µg/mL, the “growth response to colistin exposure” value [8] was “not affected” and the “growth response to colistin exposure” value [9] was “not affected”. The “susceptibility to colistin relative to other strains tested” value [10] was “least susceptible”, the “growth response to colistin exposure” value [11] was “clear inhibited growth” and the “growth response to colistin exposure” value [12] was “clear inhibited growth”. The MIC [13] was ≤ 0.25 µg/mL and the MIC [14] was 2 µg/mL.
